Source: patent US20060229284A1, “Enhanced occlusive effect photodynamic therapy” (priority 2004, published 2006)

Legend:
skin = conditions: systemic administration, clinical use; cited from earlier work
[1] = test system: neovasculature of the eye (advanced AMD); experiment: Clinical trial of PDT with Talaporfin Sodium and 664 nm laser light in 9 human subjects with advanced AMD; assay type: in vivo
Source text: A clinical trial of 9 human subjects with advanced AMD was arranged. The 9 subjects were each treated with PDT using Talaporfin Sodium, and a laser light at 664 nm wavelength as the excitation light source. The Table as provided in FIG. 1 describes the results of and details of the PDT procedures performed on the 9 subjects.

[2] = test system: subfoveal choroidal neovascularization (CNV); conditions: cases followed for 3 months after a single PDT treatment; cited from earlier work
[3] = test system: choroidal neovascularization (CNV); conditions: cited from earlier work
[4] = test system: choroidal neovascularization (CNV); conditions: after re-treatment; cited from earlier work
classic CNV = conditions: 3 months after initial PDT treatment; cited from earlier work

In the case of Oc1cccc(-c2c3nc(c(-c4cccc(O)c4)c4ccc([nH]4)c(-c4cccc(O)c4)c4nc(c(-c5cccc(O)c5)c5ccc2[nH]5)CC4)C=C3)c1 [Foscan], the “duration of skin photosensitivity” value (skin) is given as “several weeks”.

With C=Cc1c(C)c2cc3nc(c(CC(=O)N[C@@H](CC(=O)O)C(=O)O)c4[nH]c(cc5nc(cc1[nH]2)C(C)=C5CC)c(C)c4C(=O)O)[C@@H](CCC(=O)O)[C@@H]3C [Talaporfin Sodium, mono-L-aspartyl-chlorin e6] the “extended period of enhanced neovasculature occlusive effect” value ([1]; most patients of 9 subjects, laser light 664 nm) was no less than 15 weeks, the “retina and leakage after treatment” value ([1]; subjects 1 and 3, who had leakage causing serious elevation of the retina) was “the retina appeared more flat and leakage had apparently ceased” and the “re-opening of treated vessels during subsequent observations” value ([1]; subjects studied, FIG. 1) was “no indication of re-opening of vessels”.

In the case of sodium porfimer [Photophrine], the “duration of skin photosensitivity” value (skin) is listed as “up to 6 weeks”.

In the case of verteporfin, the “cases with progression of classic CNV beyond the area of CNV identified before treatment” value [2] is given as 51%, the “subject eyes that maintained CNV closure” value ([3]; after 1 week) is given as 83% and the eyes showing closure ([3]; after 5 weeks) is given as 9%. For the same compound, the “eyes showing leakage had recommenced” value ([3]; after 5 weeks, excluding one eye removed from test data) was 91%, the “leakage activity compared to baseline leakage” value [4] was “appeared to be reduced” and the “eyes scheduled for retreatment” value (classic CNV) was 90.8%. The “eyes with classic CNV present that displayed leakage from classic CNV again” value (classic CNV) was 92.8%.

In the case of CCOC(=O)C1=Cc2c3nc(cc4nc(cc5[n-]c(cc6[n-]c2c(C)c6CC)c(C)c5CC)C(C)=C4CC)[C@@H](C)[C@]13CC.[Cl-].[Cl-].[Sn] (racemic) [Purlytin], the “duration of skin photosensitivity” value (skin) is given as “several weeks”.
